Source: ChEMBL document CHEMBL1201862, “PubChem BioAssay data set” (2004)
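Five compound concentrations were applied to cells in 96-well plates for 48 hours; endpoints were derived by simple linear interpolation of the resulting dose-response curve. GI50 is the concentration that inhibits growth by half.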 Active and inactive are the calls of the source. Rule as the data show it: active = GI50 up to about 1.1 µM and inactive = higher.

Key:
Assay in all cases: NCI anticancer screen, dose series, 48 h
786-0 = system: 786-0
A498 = system: A498
A549 = system: A549
ACHN = system: ACHN
BT-549 = system: BT-549
CAKI-1 = system: CAKI-1
CCRF-CEM = system: CCRF-CEM
COLO 205 = system: COLO 205
DU-145 = system: DU-145
EKVX = system: EKVX
HCC 2998 = system: HCC 2998
HCT-116 = system: HCT-116
HCT-15 = system: HCT-15
HL-60 = system: HL-60
HOP-62 = system: HOP-62
HOP-92 = system: HOP-92
HT-29 = system: HT-29
Hs-578T = system: Hs-578T
IGROV-1 = system: IGROV-1
K562 = system: K562
KM12 = system: KM12
LOX IMVI = system: LOX IMVI
M14 = system: M14
MCF7 = system: MCF7
MDA-MB-231 = system: MDA-MB-231
MDA-MB-435 = system: MDA-MB-435
MDA-N = system: MDA-N
MOLT-4 = system: MOLT-4
Malme-3M = system: Malme-3M
NCI-H226 = system: NCI-H226
NCI-H23 = system: NCI-H23
NCI-H522 = system: NCI-H522
NCI/ADR-RES = system: NCI/ADR-RES
OVCAR-3 = system: OVCAR-3
OVCAR-4 = system: OVCAR-4
OVCAR-5 = system: OVCAR-5
OVCAR-8 = system: OVCAR-8
PC-3 = system: PC-3
RPMI-8226 = system: RPMI-8226
RXF 393 = system: RXF 393
SF-268 = system: SF-268
SF-295 = system: SF-295
SF-539 = system: SF-539
SK-MEL-28 = system: SK-MEL-28
SK-MEL-2 = system: SK-MEL-2
SK-MEL-5 = system: SK-MEL-5
SK-OV-3 = system: SK-OV-3
SN12C = system: SN12C
SNB-19 = system: SNB-19
SNB-75 = system: SNB-75
SR = system: SR
SW-620 = system: SW-620
T47D = system: T47D
TK-10 = system: TK-10
U-251 = system: U-251
UACC-257 = system: UACC-257
UACC-62 = system: UACC-62
UO-31 = system: UO-31
NCI-H460 = system: NCI-H460

Structure (SMILES): N#CC(NCc1cccc(CNC(C#N)c2ccccc2)c1)c1ccccc1 (centres undefined)
- GI50 (786-0): 35.6 µM (inactive)
- GI50 (A498): > 100 µM (inactive)
- GI50 (A549): 28.7 µM (inactive)
- GI50 (ACHN): > 100 µM (inactive)
- GI50 (BT-549): 24.7 µM (inactive)
- GI50 (CAKI-1): > 100 µM (inactive)
- GI50 (CCRF-CEM): 18.1 µM (inactive)
- GI50 (COLO 205): 19.5 µM (inactive)
- GI50 (DU-145): > 100 µM (inactive)
- GI50 (EKVX): 60 µM (inactive)
- GI50 (HCC 2998): 14.9 µM (inactive)
- GI50 (HCT-116): 23.8 µM (inactive)
- GI50 (HCT-15): 25.8 µM
- GI50 (HL-60): 20.7 µM (inactive)
- GI50 (HOP-62): > 100 µM (inactive)
- GI50 (HOP-92): 34.3 µM (inactive)
- GI50 (HT-29): 16.4 µM (inactive)
- GI50 (Hs-578T): 32.8 µM (inactive)
- GI50 (IGROV-1): 18.1 µM (inactive)
- GI50 (K562): 17.1 µM (inactive)
- GI50 (KM12): 22.3 µM (inactive)
- GI50 (LOX IMVI): 15 µM (inactive)
- GI50 (M14): 26.1 µM (inactive)
- GI50 (MCF7): 19.3 µM (inactive)
- GI50 (MDA-MB-231): 26.2 µM (inactive)
- GI50 (MDA-MB-435): 99.8 µM (inactive)
- GI50 (MDA-N): 37.2 µM (inactive)
- GI50 (MOLT-4): 16 µM (inactive)
- GI50 (Malme-3M): 26.9 µM (inactive)
- GI50 (NCI-H226): > 100 µM (inactive)
- GI50 (NCI-H23): > 100 µM (inactive)
- GI50 (NCI-H522): 40.3 µM (inactive)
- GI50 (NCI/ADR-RES): > 100 µM (inactive)
- GI50 (OVCAR-3): > 100 µM (inactive)
- GI50 (OVCAR-4): 56 µM (inactive)
- GI50 (OVCAR-5): > 100 µM (inactive)
- GI50 (OVCAR-8): 67 µM (inactive)
- GI50 (PC-3): 42.9 µM (inactive)
- GI50 (RPMI-8226): 21.1 µM (inactive)
- GI50 (RXF 393): 60.4 µM (inactive)
- GI50 (SF-268): 52.1 µM (inactive)
- GI50 (SF-295): 18.7 µM (inactive)
- GI50 (SF-539): 0.0261 µM (active)
- GI50 (SK-MEL-28): 18.1 µM (inactive)
- GI50 (SK-MEL-2): > 100 µM (inactive)
- GI50 (SK-MEL-5): 42.3 µM (inactive)
- GI50 (SK-OV-3): > 100 µM (inactive)
- GI50 (SN12C): 77.8 µM (inactive)
- GI50 (SNB-19): 64.4 µM (inactive)
- GI50 (SNB-75): 28.9 µM (inactive)
- GI50 (SR): 25.8 µM (inactive)
- GI50 (SW-620): 24.5 µM (inactive)
- GI50 (T47D): 48.6 µM (inactive)
- GI50 (TK-10): 46.2 µM (inactive)
- GI50 (U-251): 31.1 µM (inactive)
- GI50 (UACC-257): 59.6 µM (inactive)
- GI50 (UACC-62): 65.2 µM (inactive)
- GI50 (UO-31): 94.4 µM (inactive)

Structure (SMILES): O=C(Nc1ccc2ccccc2c1)c1cc2cc(CCl)ccc2oc1=O
- GI50 (786-0): 39.4 µM (inactive)
- GI50 (A498): > 100 µM (inactive)
- GI50 (A549): > 100 µM (inactive)
- GI50 (ACHN): > 100 µM (inactive)
- GI50 (BT-549): 44 µM (inactive)
- GI50 (CAKI-1): > 100 µM (inactive)
- GI50 (CCRF-CEM): 55.5 µM (inactive)
- GI50 (COLO 205): > 100 µM (inactive)
- GI50 (DU-145): > 100 µM (inactive)
- GI50 (EKVX): > 100 µM (inactive)
- GI50 (HCC 2998): > 100 µM (inactive)
- GI50 (HCT-116): > 100 µM (inactive)
- GI50 (HCT-15): > 100 µM
- GI50 (HL-60): > 100 µM (inactive)
- GI50 (HOP-62): 53.5 µM (inactive)
- GI50 (HOP-92): 51.5 µM (inactive)
- GI50 (HT-29): > 100 µM (inactive)
- GI50 (Hs-578T): 1.55 µM (inactive)
- GI50 (IGROV-1): > 100 µM (inactive)
- GI50 (K562): 54 µM (inactive)
- GI50 (KM12): > 100 µM (inactive)
- GI50 (LOX IMVI): > 100 µM (inactive)
- GI50 (M14): > 100 µM (inactive)
- GI50 (MCF7): 38.5 µM (inactive)
- GI50 (MDA-MB-231): 49 µM (inactive)
- GI50 (MDA-MB-435): > 100 µM (inactive)
- GI50 (MDA-N): > 100 µM (inactive)
- GI50 (MOLT-4): > 100 µM (inactive)
- GI50 (Malme-3M): 87.7 µM (inactive)
- GI50 (NCI-H226): 57.5 µM (inactive)
- GI50 (NCI-H23): 19 µM (inactive)
- GI50 (NCI-H460): > 100 µM (inactive)
- GI50 (NCI-H522): 74 µM (inactive)
- GI50 (NCI/ADR-RES): > 100 µM (inactive)
- GI50 (OVCAR-3): > 100 µM (inactive)
- GI50 (OVCAR-4): > 100 µM (inactive)
- GI50 (OVCAR-5): > 100 µM (inactive)
- GI50 (OVCAR-8): > 100 µM (inactive)
- GI50 (PC-3): > 100 µM (inactive)
- GI50 (RPMI-8226): > 100 µM (inactive)
- GI50 (RXF 393): 22 µM (inactive)
- GI50 (SF-268): 14.2 µM (inactive)
- GI50 (SF-295): 33.3 µM (inactive)
- GI50 (SK-MEL-28): > 100 µM (inactive)
- GI50 (SK-MEL-2): 24 µM (inactive)
- GI50 (SK-MEL-5): > 100 µM (inactive)
- GI50 (SK-OV-3): 38.5 µM (inactive)
- GI50 (SN12C): > 100 µM (inactive)
- GI50 (SNB-19): 27.6 µM (inactive)
- GI50 (SNB-75): 15.2 µM (inactive)
- GI50 (SR): > 100 µM (inactive)
- GI50 (SW-620): > 100 µM (inactive)
- GI50 (T47D): > 100 µM (inactive)
- GI50 (TK-10): 33.2 µM (inactive)
- GI50 (U-251): 30.8 µM (inactive)
- GI50 (UACC-257): > 100 µM (inactive)
- GI50 (UACC-62): > 100 µM (inactive)
- GI50 (UO-31): > 100 µM (inactive)

Structure (SMILES): Cc1cc(S(=O)(=O)n2ccnc2Oc2ccccc2)c(SSc2cc(Cl)c(C)cc2S(=O)(=O)n2ccnc2Oc2ccccc2)cc1Cl
- GI50 (786-0): 93.3 µM (inactive)
- GI50 (A498): > 100 µM (inactive)
- GI50 (A549): > 100 µM (inactive)
- GI50 (BT-549): > 100 µM (inactive)
- GI50 (CAKI-1): > 100 µM (inactive)
- GI50 (COLO 205): > 100 µM (inactive)
- GI50 (DU-145): 74.1 µM (inactive)
- GI50 (EKVX): 5.31 µM (inactive)
- GI50 (HCC 2998): > 100 µM (inactive)
- GI50 (HCT-116): > 100 µM (inactive)
- GI50 (HCT-15): > 100 µM
- GI50 (HL-60): 2.32 µM (inactive)
- GI50 (HOP-92): > 100 µM (inactive)
- GI50 (HT-29): > 100 µM (inactive)
- GI50 (Hs-578T): 1.95 µM (inactive)
- GI50 (IGROV-1): 42.6 µM (inactive)
- GI50 (K562): > 100 µM (inactive)
- GI50 (KM12): > 100 µM (inactive)
- GI50 (LOX IMVI): > 100 µM (inactive)
- GI50 (M14): > 100 µM (inactive)
- GI50 (MCF7): > 100 µM (inactive)
- GI50 (MDA-MB-231): > 100 µM (inactive)
- GI50 (MDA-MB-435): > 100 µM (inactive)
- GI50 (MDA-N): > 100 µM (inactive)
- GI50 (Malme-3M): 57.5 µM (inactive)
- GI50 (NCI-H226): 15.9 µM (inactive)
- GI50 (NCI-H460): > 100 µM (inactive)
- GI50 (NCI-H522): 5.93 µM (inactive)
- GI50 (NCI/ADR-RES): 43.4 µM (inactive)
- GI50 (OVCAR-3): > 100 µM (inactive)
- GI50 (OVCAR-4): 35.3 µM (inactive)
- GI50 (OVCAR-5): > 100 µM (inactive)
- GI50 (OVCAR-8): > 100 µM (inactive)
- GI50 (PC-3): > 100 µM (inactive)
- GI50 (RPMI-8226): > 100 µM (inactive)
- GI50 (RXF 393): > 100 µM (inactive)
- GI50 (SF-268): 59.6 µM (inactive)
- GI50 (SF-539): > 100 µM (inactive)
- GI50 (SK-MEL-28): > 100 µM (inactive)
- GI50 (SK-MEL-2): > 100 µM (inactive)
- GI50 (SK-MEL-5): 24.9 µM (inactive)
- GI50 (SK-OV-3): > 100 µM (inactive)
- GI50 (SN12C): 85.5 µM (inactive)
- GI50 (SNB-19): > 100 µM (inactive)
- GI50 (SNB-75): 1.01 µM (active)
- GI50 (SR): 44 µM (inactive)
- GI50 (SW-620): > 100 µM (inactive)
- GI50 (T47D): > 100 µM (inactive)
- GI50 (TK-10): > 100 µM (inactive)
- GI50 (U-251): > 100 µM (inactive)
- GI50 (UACC-257): > 100 µM (inactive)
- GI50 (UACC-62): > 100 µM (inactive)
- GI50 (UO-31): > 100 µM (inactive)
